In EP3653636A1, “COMPOSITIONS AND METHODS FOR IMPROVING REBAUDIOSIDE X SOLUBILITY” (The Coca-Cola Company, priority 2012, dated 2014):
Values after ≈ are worked out from the molar mass of the structure shown.

How the values were obtained:
[1] = Approximate water solubility by solvent addition method (visual inspection of complete dissolution)
Experimental: The approximate water solubility of Form A and amorphous Rebaudioside X were determined by a solvent addition method in which a weighed sample was treated with aliquots of water. The mixture was generally vortexed and/or sonicated between additions to facilitate dissolution. Complete dissolution of the test material was determined by visual inspection. Solubility was estimated based on the total solvent used to provide complete dissolution. The actual solubility may be greater than the value calculated because of the use of solvent aliquots that were too large or due to a slow rate of dissolution.

[2] = Water solubility of starting sample and spray-dried product (Example 4); format: physicochemical
[3] = Dynamic Vapor Sorption (DVS) isotherm; format: physicochemical
Experimental: The Dynamic Vapor Sorption (DVS) DVS data were collected on a VTI SGA-100 Vapor Sorption Analyzer. NaCl and PVP were used as calibration standards. The sample was not dried prior to analysis. Sorption and desorption data were collected over a range from 5 to 95% RH at 10% RH increments under a nitrogen purge. The equilibrium criterion used for analysis was less than 0.0100% weight change in 5 minutes with a maximum equilibration time of 3 hours. Data were not corrected for the initial moisture content of the samples.

[4] = Equilibrium solubility in water by UV absorbance at 205 nm (Example 10); format: physicochemical; settings: 25°C; for Original Sample Concentration: 250 mg in 10 mL water
Experimental: Samples were analyzed with a Cary 50 UV-Vis dual beam spectrophotometer. The detector was zeroed with a cuvette filled with water prior to sample analysis. Samples were analyzed at room temperature in 1.0 cm quartz cuvette using a scan rate of 600 nm/min in a range of 200 - 400 nm.
25.8 mg of amorphous Rebaudioside X was added to a 10-mL volumetric flask and dissolved 10 mL with water. This stock solution was diluted to five concentration levels for UV measurement.
A calibration curve at 205 nm was established (Abs at 205 nm vs. concentration) to provide the equation y = 5.0625x + 0.0022. R^2 was 0.9999. This equation was used for the subsequent determination of Rebaudioside X concentrations.
250 mg of amorphous Rebaudioside X was added to an amber vial and 10 mL of water was added. The mixture was stirred at room temperature about 10 minutes to yield a transparent solution with only small amount of solid remaining. The mixture became opaque rapidly. The mixture was placed on a mechanical oscillator set at a speed of 250 and 25°C. At the sampling time point of 1, 16, 24, 48, 72, 96, and 192 hours, an aliquot of the slurry was transferred to a centrifuge tube and separated at a speed of 16K rcf for 15 minutes. 200 µL of the clear supernatant was transferred to a 50-mL volumetric flask, 10 mL of water was added and mixed well before UV analysis.

[5] = Duration of clarity of aqueous solutions at various test material/water ratios, with or without filtration (Example 9); format: physicochemical
Text: The water solubility of amorphous Rebaudioside X prepared according to Example 4 was compared in various test material/water ratios with or without filtration prior to solubility determination. Generally, filtration performed after dissolution of sample assist the duration of clarity of the sample (or delays the precipitation/recrystallization of sample). […]

[6] = Table 6, water, solvent addition

For C=C1C[C@@]23CC[C@H]4[C@@](C)(CCC[C@@]4(C)C(=O)O[C@@H]4O[C@H](CO)[C@@H](O)[C@H](O[C@@H]5O[C@H](CO)[C@@H](O)[C@H](O)[C@H]5O)[C@H]4O[C@@H]4O[C@H](CO)[C@@H](O)[C@H](O)[C@H]4O)[C@@H]2CC[C@]1(O[C@@H]1O[C@H](CO)[C@@H](O)[C@H](O[C@@H]2O[C@H](CO)[C@@H](O)[C@H](O)[C@H]2O)[C@H]1O[C@@H]1O[C@H](CO)[C@@H](O)[C@H](O)[C@H]1O)C3 [Amorphous (water process)], the “Approximate Water Solubility” value [1, 6] was greater than 10000 µg/mL.

With C=C1C[C@@]23CC[C@H]4[C@@](C)(CCC[C@@]4(C)C(=O)O[C@@H]4O[C@H](CO)[C@@H](O)[C@H](O[C@@H]5O[C@H](CO)[C@@H](O)[C@H](O)[C@H]5O)[C@H]4O[C@@H]4O[C@H](CO)[C@@H](O)[C@H](O)[C@H]4O)[C@@H]2CC[C@]1(O[C@@H]1O[C@H](CO)[C@@H](O)[C@H](O[C@@H]2O[C@H](CO)[C@@H](O)[C@H](O)[C@H]2O)[C@H]1O[C@@H]1O[C@H](CO)[C@@H](O)[C@H](O)[C@H]1O)C3 [Form A Rebaudioside X, (13-[2-O-β-D-glucopyranosyl-3-O-β-D-glucopyranosyl-β-D-glucopyranosyl)oxy] ent kaur-16-en-19-oic acid-[2-O-β-D-glucopyranosyl-3-O-β-D-glycopyranosyl) ester] the water solubility [2] was 0.05%, the “Approximate Water Solubility” value [1, 6] was 1400 µg/mL and the Approximate Water Solubility ([1]; discussion text of Example 13) was 14000 µg/mL.

With C=C1C[C@@]23CC[C@H]4[C@@](C)(CCC[C@@]4(C)C(=O)O[C@@H]4O[C@H](CO)[C@@H](O)[C@H](O[C@@H]5O[C@H](CO)[C@@H](O)[C@H](O)[C@H]5O)[C@H]4O[C@@H]4O[C@H](CO)[C@@H](O)[C@H](O)[C@H]4O)[C@@H]2CC[C@]1(O[C@@H]1O[C@H](CO)[C@@H](O)[C@H](O[C@@H]2O[C@H](CO)[C@@H](O)[C@H](O)[C@H]2O)[C@H]1O[C@@H]1O[C@H](CO)[C@@H](O)[C@H](O)[C@H]1O)C3 [amorphous Rebaudioside X, (13-[2-O-β-D-glucopyranosyl-3-O-β-D-glucopyranosyl-β-D-glucopyranosyl)oxy] ent kaur-16-en-19-oic acid-[2-O-β-D-glucopyranosyl-3-O-β-D-glycopyranosyl) ester] the “weight loss upon desorption” value ([3]; DVS desorption from 95% to 5% RH) was 26.0 wt%, the “weight gain with increasing relative humidity” value ([3]; DVS sorption from 5% to 95% RH) was 26.3 wt% and the “weight loss upon equilibration at 5% RH” value ([3]; DVS, 5% RH) was 3.1 wt%. For the same molecule, the water solubility [2] was “greater than 1%”, the approximate solubility ([1]; aqueous, grams of Rebaudioside X per 100 mL water) was “greater than 0.3%” and the “Original Sample Concentration” value ([4]; sampling time 1 hrs) was 5.8 mg/mL. The “Original Sample Concentration” value ([4]; sampling time 16 hrs) was 2.7 mg/mL, the “Original Sample Concentration” value ([4]; sampling time 24 hrs) was 2.6 mg/mL and the “Original Sample Concentration” value ([4]; sampling time 48 hrs) was 2.5 mg/mL. For the same molecule, the “Original Sample Concentration” value ([4]; sampling time 72 hrs) was 2.8 mg/mL, the “Original Sample Concentration” value ([4]; sampling time 96 hrs) was 2.8 mg/mL and the “Original Sample Concentration” value ([4]; sampling time 192 hrs) was 2.6 mg/mL. The solubility thermodynamic ([4]; water) was 2600 µg/mL (≈ 2010 µM), the “time until equilibrium was established” value ([4]; water) was no more than 16 h and the “Duration of Clarity of Sample” value ([5]; Sample 1: 250 mg/500 mL water, not filtered) was greater than 60 days^a. For the same molecule, the “Duration of Clarity of Sample” value ([5]; Sample 2: 500 mg/500 mL water, not filtered) was greater than 60 days^a, the “Duration of Clarity of Sample” value ([5]; Sample 3: 750 mg/500 mL water, not filtered) was greater than 0.12 days and the “Duration of Clarity of Sample” value ([5]; Sample 5: 625 mg/250 mL water, filtered (0.22 µm membrane)) was greater than 1 days. The “Duration of Clarity of Sample” value ([5]; Sample 6: 1750 mg/500 mL water, not filtered) was “∼3 h”, the “Duration of Clarity of Sample” value ([5]; Sample 7: 1750 mg/500 mL water, filtered (0.22 µm membrane)) was greater than 1 days and the “Duration of Clarity of Sample” value ([5]; Sample 8: 1000 mg/100 mL water, filtered (0.22 µm membrane)) was “∼2 h”.
